Source: paper PMC10948610, “Profiling of Petroselinum sativum (mill.) fuss phytoconstituents and assessment of their biocompatibility, antioxidant, anti-aging, wound healing, and antibacterial activities” (Frontiers in Nutrition, 2024)

Assays:
Test in all cases: in vitro enzyme inhibition, optical density read-out
Type in all cases: biochemical
Conditions in all cases: positive control; substrate, pH and temperature not given
Elastase = biological target: T1, Elastase
T1 construct: gene CELA1; usual assay enzyme is native porcine pancreatic elastase, human neutrophil elastase possible
Text: in vitro enzyme inhibition, optical density read-out on Elastase

Hyaluronidase = biological target: T2, Hyaluronidase
T2 construct: gene SPAM1; usual assay enzyme is native bovine testicular hyaluronidase
Text: in vitro enzyme inhibition, optical density read-out on Hyaluronidase

Collagenase = biological target: T3, Collagenase
T3 construct: gene colG; usual assay enzyme is native clostridial collagenase, human MMP1 possible
Text: in vitro enzyme inhibition, optical density read-out on Collagenase

Row | SMILES | Elastase / IC50 (Elastase) | Hyaluronidase / IC50 (Hyaluronidase) | Collagenase / IC50 (Collagenase)
1 | O=c1cc(CO)occ1O [Kojic acid] | 21.60 ± 0.9 µg/mL | 14.46 ± 0.6 µg/mL | 
2 | O=c1c(O)c(-c2ccc(O)c(O)c2)oc2cc(O)cc(O)c12 [Quercetin] |  |  | 24.83 ± 1.8 µg/mL
